{"source": "patent US10441578B2", "about": "“Altering expression level of glutathione S-transferase genes by treating a human subject with a nitroxide” (priority 2018, dated 2019)", "assay_type_in_all_cases": "in vivo", "key": {"[1]": {"test_system": "Glutathione S-transferase kappa1 (Gstk1)", "assay": "Microarray gene expression in white adipose tissue of Tempol-fed mice", "method": "(§1) To assess the effects of Tempol on gene expression, Tempol was administered to experimental mice at a dose of 5 mg/g of food from 14 months to 31 months after birth. Mice receiving the same food without the addition of Tempol were used as a negative control. At the age of 31 months, the experimental animals were sacrificed and the hearts were surgically removed. The expression of a broad spectrum of genes in white adipose tissue tissue was assessed using chip-based microarray technology. Such chips are well known in the art and are widely used to assess gene expression."}, "[2]": {"test_system": "Glutathione S-transferase, alpha 3 (Gsta3)", "assay": "Microarray gene expression in white adipose tissue of Tempol-fed mice", "method": "as §1"}, "[3]": {"test_system": "Glutathione S-transferase, alpha 4 (Gsta4)", "assay": "Microarray gene expression in white adipose tissue of Tempol-fed mice", "method": "as §1"}, "[4]": {"test_system": "Glutathione S-transferase, mu 1 (Gstm1)", "assay": "Microarray gene expression in white adipose tissue of Tempol-fed mice", "method": "as §1"}, "[5]": {"test_system": "Glutathione S-transferase, mu 3 (Gstm3)", "assay": "Microarray gene expression in white adipose tissue of Tempol-fed mice", "method": "as §1"}, "[6]": {"test_system": "Glutathione S-transferase, mu 4 (Gstm4)", "assay": "Microarray gene expression in white adipose tissue of Tempol-fed mice", "method": "as §1"}, "[7]": {"test_system": "Glutathione S-transferase, mu 6 (Gstm6)", "assay": "Microarray gene expression in white adipose tissue of Tempol-fed mice", "method": "as §1"}, "[8]": {"test_system": "Glutathione S-transferase, pi 1 (Gstp1)", "assay": "Microarray gene expression in white adipose tissue of Tempol-fed mice", "method": "as §1"}, "[9]": {"test_system": "Glutathione S-transferase, theta 1 (Gstt1)", "assay": "Microarray gene expression in white adipose tissue of Tempol-fed mice", "method": "as §1"}, "[10]": {"test_system": "Glutathione S-transferase, theta 2 (Gstt2)", "assay": "Microarray gene expression in white adipose tissue of Tempol-fed mice", "method": "as §1"}, "[11]": {"test_system": "Gstm3, Gstm6, Gsta3, Gstt1, Gsta4, Gstm1, Gstm4, Gstt2, Gstp1, or Gstk1", "assay": "Treatment of a human subject with a nitroxide antioxidant, serum level of GST", "conditions": "1500 mg per day for 180 days", "method": "(§2) A 70-kilogram human subject over the age of 65 is identified for decreased expression level of Gstm3, Gstm6, Gsta3, Gstt1, Gsta4, Gstm1, Gstm4, Gstt2, Gstp1, or Gstk1. The human subject is administered a dose of 1500 mg of a nitroxide antioxidant (e.g., Tempol) per day for 180 days. This may be administered in a single dose, or may be administered as a number of smaller doses over a 24-hour period: for example, three 500-mg doses at eight-hour intervals. Following treatment, the serum level of Gstm3, Gstm6, Gsta3, Gstt1, Gsta4, Gstm1, Gstm4, Gstt2, Gstp1, or Gstk1, is increased.\nas §2, with “65 and having a cardiovascular disease” for “65”\nas §2, with “subject” for “subject over the age of 65”\nas §2, with “subject” for “subject over the age of 65”, “Gstk1 that is associated with a disease (e.g., caused by or causing a disease).” for “Gstk1.”\nas §2, with “at risk” for “over the age”, “developing a cancer (e.g., colorectal cancer) or having a cancer” for “65”\nas §2, with “at risk” for “over the age”, “developing or having an autoimmune disease (e.g., rheumatoid arthritis)” for “65”\nA 70-kilogram human subject of person at risk of developing, or having, a condition due to aging is identified. The human subject is administered a dose of 1500 mg of a nitroxide antioxidant (e.g., Tempol) per day for 180 days. […]"}, "[12]": {"conditions": "Tempol-treated vs control mice, microarray"}, "[13]": {"conditions": "Tempol-treated vs control mice, P-value 0.003"}, "[14]": {"conditions": "Tempol-treated vs control mice, P-value 0.001"}}, "data": [{"compound": "CC1(C)CC(O)CC(C)(C)N1[O]", "note": "[Tempol, 4-hydroxy-2,2,6,6-tetramethylpiperidine-1-oxyl]", "values": [{"measurement": "Expression, Tempol-treated mice", "setting": "[1]; Tempol 5 mg/g of food from 14 to 31 months after birth, microarray, control mice 1140", "result": 1325}, {"measurement": "Fold change", "setting": "[1]; Tempol-treated vs control mice, P-value 0.015", "result": 1.16}, {"measurement": "Change in expression (in words)", "setting": "[1]; [12]", "result": "statistically significant increase in expression"}, {"measurement": "Expression, Tempol-treated mice", "setting": "[2]; Tempol 5 mg/g of food from 14 to 31 months after birth, microarray, control mice 668", "result": 1183}, {"measurement": "Fold change", "setting": "[2]; Tempol-treated vs control mice, P-value 0.004", "result": 1.77}, {"measurement": "Change in expression (in words)", "setting": "[2]; [12]", "result": "statistically significant increase in expression"}, {"measurement": "Expression, Tempol-treated mice", "setting": "[3]; Tempol 5 mg/g of food from 14 to 31 months after birth, microarray, control mice 195", "result": 284}, {"measurement": "Fold change", "setting": "[3]; Tempol-treated vs control mice, P-value 0.006", "result": 1.45}, {"measurement": "Change in expression (in words)", "setting": "[3]; [12]", "result": "statistically significant increase in expression"}, {"measurement": "Expression, Tempol-treated mice", "setting": "[4]; Tempol 5 mg/g of food from 14 to 31 months after birth, microarray, control mice 6291", "result": 8548}, {"measurement": "Fold change", "setting": "[4]; [13]", "result": 1.36}, {"measurement": "Change in expression (in words)", "setting": "[4]; [12]", "result": "statistically significant increase in expression"}, {"measurement": "Expression, Tempol-treated mice", "setting": "[5]; Tempol 5 mg/g of food from 14 to 31 months after birth, microarray, control mice 10", "result": 74}, {"measurement": "Fold change", "setting": "[5]; [14]", "result": 7.52}, {"measurement": "Change in expression (in words)", "setting": "[5]; [12]", "result": "statistically significant increase in expression"}, {"measurement": "Expression, Tempol-treated mice", "setting": "[6]; Tempol 5 mg/g of food from 14 to 31 months after birth, microarray, control mice 416", "result": 533}, {"measurement": "Fold change", "setting": "[6]; [13]", "result": 1.28}, {"measurement": "Change in expression (in words)", "setting": "[6]; [12]", "result": "statistically significant increase in expression"}, {"measurement": "Expression, Tempol-treated mice", "setting": "[7]; Tempol 5 mg/g of food from 14 to 31 months after birth, microarray, control mice 147", "result": 265}, {"measurement": "Fold change", "setting": "[7]; Tempol-treated vs control mice, P-value 0.034", "result": 1.8}, {"measurement": "Change in expression (in words)", "setting": "[7]; [12]", "result": "statistically significant increase in expression"}, {"measurement": "Expression, Tempol-treated mice", "setting": "[8]; Tempol 5 mg/g of food from 14 to 31 months after birth, microarray, control mice 5711", "result": 6812}, {"measurement": "Fold change", "setting": "[8]; Tempol-treated vs control mice, P-value 0.005", "result": 1.19}, {"measurement": "Change in expression (in words)", "setting": "[8]; [12]", "result": "statistically significant increase in expression"}, {"measurement": "Expression, Tempol-treated mice", "setting": "[9]; Tempol 5 mg/g of food from 14 to 31 months after birth, microarray, control mice 1017", "result": 1619}, {"measurement": "Fold change", "setting": "[9]; [14]", "result": 1.59}, {"measurement": "Change in expression (in words)", "setting": "[9]; [12]", "result": "statistically significant increase in expression"}, {"measurement": "Expression, Tempol-treated mice", "setting": "[10]; Tempol 5 mg/g of food from 14 to 31 months after birth, microarray, control mice 446", "result": 546}, {"measurement": "Fold change", "setting": "[10]; Tempol-treated vs control mice, P-value 0.035", "result": 1.22}, {"measurement": "Change in expression (in words)", "setting": "[10]; [12]", "result": "statistically significant increase in expression"}, {"measurement": "Serum level of GST following treatment", "setting": "[11]; Example 2: human subject over the age of 65 with decreased expression", "result": "increased"}, {"measurement": "Serum level of GST following treatment", "setting": "[11]; Example 3: human subject over the age of 65 having a cardiovascular disease", "result": "increased"}, {"measurement": "Serum level of GST following treatment", "setting": "[11]; Example 4: human subject with decreased expression level", "result": "increased"}, {"measurement": "Serum level of GST following treatment", "setting": "[11]; Example 5: decreased expression associated with a disease", "result": "increased"}, {"measurement": "Serum level of GST following treatment", "setting": "[11]; Example 6: human subject at risk of developing or having a cancer", "result": "increased"}, {"measurement": "Serum level of GST following treatment", "setting": "[11]; Example 7: human subject at risk of developing or having an autoimmune disease", "result": "increased"}, {"measurement": "Serum level of GST following treatment", "setting": "[11]; Example 8: human subject, condition due to aging", "result": "increased"}, {"measurement": "Serum level of GST following treatment", "setting": "[11]; Example 9: human subject at risk of developing or having a neurodegenerative disease", "result": "increased"}, {"measurement": "Serum level of GST following treatment", "setting": "[11]; Example 10: human subject having an infection", "result": "increased"}]}]}
